Measurements from the CheMixHub viscosity set.
± gives the uncertainty stated by the source.

Test: xn = mol fraction of the nth substance listed

C=C(C)[C@@H]1CC=C(C)CC1 + CC12CCC(CC1)C(C)(C)O2
viscosity [mPa·s], 101.33 kPa
Conditions	298.15 K	313.15 K
x1 = 0.0715	2.345 ± 0.019	1.741 ± 0.014
x1 = 0.1121	2.23 ± 0.018	1.664 ± 0.014
x1 = 0.2018	1.995 ± 0.016	1.504 ± 0.012
x1 = 0.327	1.704 ± 0.014	1.305 ± 0.011
x1 = 0.4614	1.439 ± 0.011	1.123 ± 0.009
x1 = 0.5584	1.279 ± 0.01	1.011 ± 0.008
x1 = 0.6401	1.162 ± 0.009	0.929 ± 0.008
x1 = 0.7336	1.05 ± 0.008	0.851 ± 0.007
x1 = 0.8226	0.963 ± 0.008	0.785 ± 0.007
x1 = 0.8648	0.928 ± 0.008	0.759 ± 0.006
x1 = 0.9499	0.872 ± 0.007	0.716 ± 0.006

CCCCCCO + CC#N
viscosity [mPa·s], 101 kPa
Conditions	298.15 K	303.15 K	308.15 K
x2 = 0.1095	3.187 ± 0.28	2.576 ± 0.23	2.165 ± 0.19
x2 = 0.2173	2.358 ± 0.21	2.078 ± 0.18	1.839 ± 0.17
x2 = 0.2885	1.966 ± 0.17	1.831 ± 0.16	1.573 ± 0.14
x2 = 0.3844	1.55 ± 0.14	1.386 ± 0.13	1.233 ± 0.12
x2 = 0.5121	1.109 ± 0.11	1.004 ± 0.096	0.913 ± 0.088
x2 = 0.627	0.84 ± 0.082	0.766 ± 0.076	0.704 ± 0.071
x2 = 0.7147	0.676 ± 0.069	0.611 ± 0.063	0.57 ± 0.06
x2 = 0.7903	0.545 ± 0.058	0.513 ± 0.055	0.483 ± 0.052
x2 = 0.8533	0.47 ± 0.051	0.445 ± 0.049	0.419 ± 0.047
x2 = 0.9086	0.415 ± 0.047	0.395 ± 0.045	0.376 ± 0.044
x2 = 0.9558	0.377 ± 0.044	0.36 ± 0.042	0.343 ± 0.041

O=C1CCCCC1 + CC(=O)N(C)C
viscosity [mPa·s], 101 kPa
Conditions	298.15 K	308.15 K	318.15 K
x1 = 0.1	1.024 ± 0.008	0.873 ± 0.007	0.75 ± 0.006
x1 = 0.2001	1.095 ± 0.008	0.907 ± 0.007	0.76 ± 0.006
x1 = 0.3001	1.182 ± 0.009	0.956 ± 0.007	0.782 ± 0.006
x1 = 0.4001	1.28 ± 0.009	1.018 ± 0.007	0.823 ± 0.006
x1 = 0.45	1.334 ± 0.01	1.058 ± 0.008	0.849 ± 0.006
x1 = 0.4999	1.391 ± 0.01	1.099 ± 0.008	0.882 ± 0.006
x1 = 0.5501	1.454 ± 0.01	1.147 ± 0.008	0.922 ± 0.007
x1 = 0.5991	1.518 ± 0.01	1.196 ± 0.008	0.962 ± 0.007
x1 = 0.7015	1.66 ± 0.011	1.322 ± 0.009	1.071 ± 0.007
x1 = 0.7499	1.731 ± 0.011	1.387 ± 0.009	1.134 ± 0.008
x1 = 0.7984	1.805 ± 0.012	1.454 ± 0.01	1.199 ± 0.008
x1 = 0.8997	1.969 ± 0.013	1.615 ± 0.01	1.348 ± 0.009

CC(=O)CC(C)C + CC(=O)O
viscosity [mPa·s]
Conditions	293.15 K	298.15 K	308.15 K	318.15 K
101.32 kPa, x1 = 0.048	1.179 ± 0.014	1.085 ± 0.013	0.9387 ± 0.011	0.82 ± 0.0098
101.32 kPa, x1 = 0.102	–	–	–	0.7844 ± 0.0093
101.32 kPa, x1 = 0.103	1.122 ± 0.013	1.037 ± 0.012	0.8955 ± 0.011	–
101.32 kPa, x1 = 0.164	1.065 ± 0.013	0.9866 ± 0.012	0.8505 ± 0.01	0.7456 ± 0.0089
101.32 kPa, x1 = 0.233	–	–	–	0.708 ± 0.0085
101.32 kPa, x1 = 0.234	1.004 ± 0.012	0.9325 ± 0.011	0.803 ± 0.0096	–
101.32 kPa, x1 = 0.313	–	–	–	0.6696 ± 0.008
101.32 kPa, x1 = 0.314	0.9417 ± 0.011	0.8743 ± 0.01	0.7592 ± 0.0091	–
101.32 kPa, x1 = 0.405	–	–	–	0.6271 ± 0.0075
101.32 kPa, x1 = 0.406	0.8773 ± 0.01	0.8108 ± 0.0096	0.7072 ± 0.0085	–
101.32 kPa, x1 = 0.514	0.8105 ± 0.0096	0.752 ± 0.009	0.6636 ± 0.008	0.5844 ± 0.0071
101.32 kPa, x1 = 0.646	–	–	–	0.5401 ± 0.0066
101.32 kPa, x1 = 0.647	0.7427 ± 0.0089	0.688 ± 0.0082	0.6078 ± 0.0073	–
101.32 kPa, x1 = 0.805	–	0.6272 ± 0.0075	0.5546 ± 0.0067	0.4944 ± 0.006
101.32 kPa, x1 = 0.806	0.6691 ± 0.008	–	–	–
101.33 kPa, x1 = 0.048	1.179 ± 0.014	1.085 ± 0.013	0.9387 ± 0.011	0.82 ± 0.0097
101.33 kPa, x1 = 0.102	–	–	–	0.7844 ± 0.0093
101.33 kPa, x1 = 0.103	1.122 ± 0.013	1.037 ± 0.012	0.8955 ± 0.011	–
101.33 kPa, x1 = 0.164	1.065 ± 0.013	0.9866 ± 0.012	0.8505 ± 0.01	0.7456 ± 0.0089
101.33 kPa, x1 = 0.233	–	–	–	0.708 ± 0.0085
101.33 kPa, x1 = 0.234	1.004 ± 0.012	0.9325 ± 0.011	0.803 ± 0.0095	–
101.33 kPa, x1 = 0.313	–	–	–	0.6696 ± 0.008
101.33 kPa, x1 = 0.314	0.9417 ± 0.011	0.8743 ± 0.01	0.7592 ± 0.0091	–
101.33 kPa, x1 = 0.405	–	–	–	0.6271 ± 0.0075
101.33 kPa, x1 = 0.406	0.8773 ± 0.01	0.8108 ± 0.0096	0.7072 ± 0.0085	–
101.33 kPa, x1 = 0.514	0.8105 ± 0.0096	0.752 ± 0.009	0.6636 ± 0.008	0.5844 ± 0.0071
101.33 kPa, x1 = 0.646	–	–	–	0.5401 ± 0.0066
101.33 kPa, x1 = 0.647	0.7427 ± 0.0089	0.688 ± 0.0082	0.6078 ± 0.0073	–
101.33 kPa, x1 = 0.805	–	0.6272 ± 0.0075	0.5546 ± 0.0067	0.4944 ± 0.006
101.33 kPa, x1 = 0.806	0.6691 ± 0.008	–	–	–

CCOCC + CC(=O)O
viscosity [mPa·s], 101 kPa
Conditions	x2 = 0.124	x2 = 0.2575	x2 = 0.5649	x2 = 0.6393	x2 = 0.749	x2 = 0.9116
293.15 K	0.3184 ± 0.0086	0.3737 ± 0.01	0.5451 ± 0.015	0.6641 ± 0.018	–	1.048 ± 0.028
303.15 K	0.2837 ± 0.0077	0.3354 ± 0.0091	0.483 ± 0.013	0.5903 ± 0.016	0.7376 ± 0.019	0.8999 ± 0.024
313.15 K	–	0.3088 ± 0.0084	–	0.5215 ± 0.014	0.6621 ± 0.017	0.791 ± 0.021
323.15 K	–	–	0.3937 ± 0.011	0.4665 ± 0.013	0.5877 ± 0.016	0.6835 ± 0.018

CC(=O)CC(C)C + CC(C)=O
298.15 K, 101 kPa
Conditions	viscosity [mPa·s]
x2 = 0.0872	0.5206 ± 0.005
x2 = 0.2689	0.474 ± 0.0047
x2 = 0.3526	0.4524 ± 0.0045
x2 = 0.359	0.45 ± 0.0045
x2 = 0.5077	0.4139 ± 0.0043
x2 = 0.7067	0.366 ± 0.0039
x2 = 0.7731	0.3515 ± 0.0038
x2 = 0.8344	0.3373 ± 0.0037
x2 = 0.835	0.3362 ± 0.0037
x2 = 0.9323	0.3141 ± 0.0036
